# From the supplement of paper PMC10307832
# Tests used:
# Assay in all cases: relative viability (nuclei count vs DMSO), 5 days (fraction); higher = more cells survive
# [1] = compound: CN(C)CC1=CC(=CC=C1)N=C(C2=CC=CC=C2)C3=C(NC4=C3C=CC(=C4)C(=O)N(C)C)O + Nc1ncn([C@H]2C[C@H](O)[C@@H](CO)O2)c(=O)n1 [Decitabine] (partner 2 µM)
# Procedure, shortened: (§1)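 Medians of duplicate plates are given as relative viability. That measure is the nuclei count in treated wells divided by the count in vehicle wells. Counts were taken on 4× images of lung cancer cell lines in 1536-well plates, 5 days after pin-tool dosing the day after seeding with one drug alone or a fixed anchor-drug dose plus five library-drug doses (not always all listed) in √10 steps.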
# [2] = compound: CN(C)CC1=CC(=CC=C1)N=C(C2=CC=CC=C2)C3=C(NC4=C3C=CC(=C4)C(=O)N(C)C)O + NC(=O)Nc1cc(-c2cccc(F)c2)sc1C(=O)N[C@H]1CCCNC1 [AZD7762] (partner 0.2 µM)
# Procedure, shortened: as §1
# [3] = compound: CN(C)CC1=CC(=CC=C1)N=C(C2=CC=CC=C2)C3=C(NC4=C3C=CC(=C4)C(=O)N(C)C)O + CS(=O)(=O)CCNCc1ccc(-c2ccc3ncnc(Nc4ccc(OCc5cccc(F)c5)c(Cl)c4)c3c2)o1 [Lapatinib] (partner 2 µM)
# Procedure, shortened: as §1
# [4] = compound: CN(C)CC1=CC(=CC=C1)N=C(C2=CC=CC=C2)C3=C(NC4=C3C=CC(=C4)C(=O)N(C)C)O + CC(C)C[C@H](NC(=O)[C@H](Cc1ccccc1)NC(=O)c1cnccn1)B(O)O [Bortezomib] (partner 0.002 µM)
# Procedure, shortened: as §1
Cell Line,relative viability ([1]; first compound 0.08 µM),relative viability ([1]; first compound 0.253 µM),relative viability ([1]; first compound 0.8 µM),relative viability ([1]; first compound 2.53 µM),relative viability ([1]; first compound 8 µM),relative viability ([2]; first compound 0.08 µM),relative viability ([2]; first compound 0.253 µM),relative viability ([2]; first compound 0.8 µM),relative viability ([2]; first compound 2.53 µM),relative viability ([2]; first compound 8 µM),relative viability ([3]; first compound 0.08 µM),relative viability ([3]; first compound 0.253 µM),relative viability ([3]; first compound 0.8 µM),relative viability ([3]; first compound 2.53 µM),relative viability ([3]; first compound 8 µM),relative viability ([4]; first compound 0.08 µM),relative viability ([4]; first compound 0.253 µM),relative viability ([4]; first compound 0.8 µM),relative viability ([4]; first compound 2.53 µM),relative viability ([4]; first compound 8 µM)
HCC-366,0.385,0.36,0.34,0.333,0.341,0.303,0.252,0.248,0.157,0.315,0.949,0.939,1.07,1.01,1.08,0.949,1.01,1.03,0.906,0.9
HCC-827,0.334,0.349,0.305,0.367,0.341,0.232,0.26,0.156,0.229,0.182,0.218,0.191,0.197,0.191,0.191,1.08,1.03,1.08,1.08,1.05
HOP-62,0.21,0.282,0.195,0.206,0.262,0.505,0.566,0.496,0.693,0.673,1.03,1.11,1.14,1.05,0.946,0.875,1.25,0.746,0.801,0.72
LC-2-ad,0.694,0.848,0.747,0.841,0.782,0.842,0.819,0.812,0.829,0.867,1.03,0.893,0.879,0.876,0.981,1.08,1.1,1.03,0.979,0.995
LCLC-97TM1,0.271,0.261,0.225,0.219,0.205,0.312,0.328,0.241,0.281,0.281,1.14,1.02,1.13,1.37,0.574,0.528,0.942,0.504,0.605,1.35
LOU-NH91,0.781,0.822,0.757,0.803,0.818,0.762,0.801,0.713,0.719,0.703,0.721,0.836,0.75,0.743,0.697,0.493,0.472,0.447,0.533,0.472
LU99A,0.925,0.79,0.885,0.927,0.673,0.45,0.335,0.337,0.24,0.299,1.06,1,1.01,0.922,0.756,1.13,1.21,1.15,1.09,0.911
LXF-289,0.343,0.368,0.366,0.384,0.374,1.12,1.05,1.11,0.894,1.08,0.888,0.887,0.893,0.86,0.815,1,0.888,0.993,0.927,0.939
NCI-H23,,0.332,0.303,0.343,0.346,,0.243,0.255,0.324,0.319,1.39,1.26,1.03,0.984,0.886,1.08,1.02,1.18,0.951,0.833
NCI-H322M,0.598,0.719,0.644,0.652,0.567,0.53,0.599,0.53,0.448,0.588,0.612,0.599,0.54,0.564,0.575,1.25,1.14,1.19,1.16,1.26
NCI-H460,0.449,0.491,0.503,0.456,0.471,0.667,0.511,0.636,,0.664,1.1,0.967,1.04,0.776,0.741,1.22,1.05,1.1,0.974,1.06
NCI-H596,0.919,1.05,0.967,1.03,0.979,1.22,1.29,0.979,1.06,0.987,1.12,1.32,0.971,1.05,1.13,1.05,1.17,1.07,1.11,1.26
NCI-H647,0.414,0.477,0.423,0.438,0.488,0.513,0.483,0.463,0.48,0.445,1.15,1.03,0.944,0.957,0.603,1.02,1.01,1.01,0.846,0.776
NCI-H650,0.364,0.408,0.335,0.33,0.371,1.4,0.938,1.16,0.897,0.855,1.02,1.12,1.07,0.706,0.755,0.695,0.993,0.767,0.717,0.661
NCI-H727,,0.817,0.841,1.09,0.864,,0.546,0.577,0.867,0.583,0.7,0.855,0.834,0.734,0.665,0.872,0.764,0.786,0.739,0.764
NCI-H838,0.485,0.507,0.427,0.458,0.413,0.951,0.928,0.948,0.831,0.903,0.972,1.01,1.08,0.895,0.685,0.792,0.8,0.916,0.757,0.73
